# Data taken from paper PMC12384225, “Piezo1 Channel Activators Yoda1 and Yoda2 in the Context of Red Blood Cells” (Biomolecules, 2025).
# Key:
# Piezo1 channel = target: T1, Piezo1 channel (Homo sapiens, UniProt Q92508); experiment: Automated whole-cell patch clamp (SyncroPatch 384) of Piezo1-mediated currents in RBCs; type: cell-based; details: for responding cells out of total valid cells / responding cells out of total valid cells (any concentration) / concentration at which the response plateaus: +80 mV; for responding cells out of total valid cells (any concentration): current > baseline + 3σ at any concentration, N = 3; for EC50: human RBCs, responders only, current at +80 mV normalised to baseline, cumulative concentrations, Hill fit, room temperature; for concentration at which the response plateaus: normalised concentration-response curves
# T1 construct: endogenous in cells; host or cells: human red blood cells (RBCs) from donor blood
# T1 sequence (Q92508 whole entry): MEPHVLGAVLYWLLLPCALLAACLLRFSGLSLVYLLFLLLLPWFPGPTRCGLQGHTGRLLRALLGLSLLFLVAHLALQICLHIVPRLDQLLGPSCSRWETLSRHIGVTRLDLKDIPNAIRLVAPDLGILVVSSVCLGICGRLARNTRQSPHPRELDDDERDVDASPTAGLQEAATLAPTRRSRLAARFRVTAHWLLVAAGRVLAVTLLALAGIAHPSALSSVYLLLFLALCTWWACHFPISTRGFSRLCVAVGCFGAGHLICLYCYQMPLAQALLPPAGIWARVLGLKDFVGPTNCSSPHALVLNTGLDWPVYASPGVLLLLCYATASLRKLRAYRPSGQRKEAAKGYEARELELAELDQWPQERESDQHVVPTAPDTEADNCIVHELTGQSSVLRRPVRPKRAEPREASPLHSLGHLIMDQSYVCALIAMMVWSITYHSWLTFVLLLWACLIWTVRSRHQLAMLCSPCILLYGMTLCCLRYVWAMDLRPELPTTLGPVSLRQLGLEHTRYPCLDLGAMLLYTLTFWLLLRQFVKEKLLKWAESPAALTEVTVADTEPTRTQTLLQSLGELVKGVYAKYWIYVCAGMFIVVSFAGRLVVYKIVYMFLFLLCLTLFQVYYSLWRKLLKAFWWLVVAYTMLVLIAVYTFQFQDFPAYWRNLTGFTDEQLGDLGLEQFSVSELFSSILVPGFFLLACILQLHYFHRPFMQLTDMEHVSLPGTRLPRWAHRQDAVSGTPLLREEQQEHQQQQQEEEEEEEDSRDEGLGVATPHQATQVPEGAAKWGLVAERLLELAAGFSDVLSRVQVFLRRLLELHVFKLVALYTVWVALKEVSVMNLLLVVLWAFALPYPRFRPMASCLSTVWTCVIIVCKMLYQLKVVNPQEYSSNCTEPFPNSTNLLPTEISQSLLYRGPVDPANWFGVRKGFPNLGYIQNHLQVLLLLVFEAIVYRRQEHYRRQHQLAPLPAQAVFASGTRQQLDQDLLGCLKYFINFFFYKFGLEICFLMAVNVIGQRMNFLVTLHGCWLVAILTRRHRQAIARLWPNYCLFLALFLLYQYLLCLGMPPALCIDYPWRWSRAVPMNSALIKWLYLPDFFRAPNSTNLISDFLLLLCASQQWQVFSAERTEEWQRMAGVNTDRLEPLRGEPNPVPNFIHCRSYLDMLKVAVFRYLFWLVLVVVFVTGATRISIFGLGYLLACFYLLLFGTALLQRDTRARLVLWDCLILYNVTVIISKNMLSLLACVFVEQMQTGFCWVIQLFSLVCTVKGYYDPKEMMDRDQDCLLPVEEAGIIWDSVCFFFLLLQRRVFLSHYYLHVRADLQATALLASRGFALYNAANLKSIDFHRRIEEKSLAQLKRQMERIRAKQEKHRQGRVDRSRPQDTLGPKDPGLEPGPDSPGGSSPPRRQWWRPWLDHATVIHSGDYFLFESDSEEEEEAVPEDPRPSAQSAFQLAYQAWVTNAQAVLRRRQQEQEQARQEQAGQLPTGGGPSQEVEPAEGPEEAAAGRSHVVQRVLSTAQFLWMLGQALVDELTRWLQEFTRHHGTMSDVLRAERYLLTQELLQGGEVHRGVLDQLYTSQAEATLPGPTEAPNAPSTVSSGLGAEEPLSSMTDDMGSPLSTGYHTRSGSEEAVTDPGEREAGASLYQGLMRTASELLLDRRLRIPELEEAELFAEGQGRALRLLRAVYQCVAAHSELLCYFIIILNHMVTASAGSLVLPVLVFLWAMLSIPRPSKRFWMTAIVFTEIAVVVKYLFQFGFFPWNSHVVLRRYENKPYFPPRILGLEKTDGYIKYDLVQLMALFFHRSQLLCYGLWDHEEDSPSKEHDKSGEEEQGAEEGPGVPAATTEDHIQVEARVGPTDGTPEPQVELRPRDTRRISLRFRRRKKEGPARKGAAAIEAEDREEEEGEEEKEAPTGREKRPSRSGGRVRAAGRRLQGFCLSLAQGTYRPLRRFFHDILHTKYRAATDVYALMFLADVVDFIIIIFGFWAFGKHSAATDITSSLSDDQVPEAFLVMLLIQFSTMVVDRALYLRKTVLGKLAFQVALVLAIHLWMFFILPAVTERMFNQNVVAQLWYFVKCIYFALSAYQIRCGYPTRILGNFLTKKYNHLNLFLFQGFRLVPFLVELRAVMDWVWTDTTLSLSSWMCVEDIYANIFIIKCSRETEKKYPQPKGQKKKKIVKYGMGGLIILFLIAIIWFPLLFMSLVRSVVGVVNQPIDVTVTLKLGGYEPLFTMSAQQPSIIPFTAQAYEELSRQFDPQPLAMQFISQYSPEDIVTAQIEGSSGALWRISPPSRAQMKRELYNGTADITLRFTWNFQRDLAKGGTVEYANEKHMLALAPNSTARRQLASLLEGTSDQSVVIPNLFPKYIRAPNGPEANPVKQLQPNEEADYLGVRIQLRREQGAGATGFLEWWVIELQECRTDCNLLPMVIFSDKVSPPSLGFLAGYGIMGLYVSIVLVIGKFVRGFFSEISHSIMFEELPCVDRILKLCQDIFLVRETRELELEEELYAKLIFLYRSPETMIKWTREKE
# Method: Whole-cell patch clamp recordings were performed using the SyncroPatch 384 (Nanion Technologies, Munich, Germany) as previously described. Experiments were conducted at room temperature using NPC-384 single-hole microchips with resistances ranging from 6 to 10 MΩ. Recording solutions contained (in mM) 110 KF, 10 KCl, 10 NaCl, 10 EGTA, and 10 HEPES, pH 7.2 (KOH) (internal); and 140 NaCl, 4 KCl, 2 CaCl2, 1 MgCl2, 5 D-glucose monohydrate, and 10 HEPES, pH 7.4 (NaOH) (external). Data acquisition was conducted using PatchControl384 v3.2.2 (Nanion Technologies, Munich, Germany), sampled at 10 kHz.
# Piezo1-mediated currents were elicited using a voltage ramp protocol ranging from −100 mV to +80 mV over 450 ms, applied every 10 s, with a holding potential set at −30 mV. After establishing a stable baseline current in the external solution, cells were exposed to increasing concentrations of either Yoda1 or Yoda2 (Tocris Bioscience, Bristol, UK) in a cumulative manner: 41 nM, 144 nM, 442 nM, 1.33 μM, 4 μM, and 8 μM. To block channel activity, 30 μM GdCl3 (Sigma-Aldrich, Merck KGaA, Taufkirchen, Germany, a non-selective ion channel inhibitor, was subsequently applied.
# RBCs were classified as responders if the mean current amplitude in the presence of the compound exceeded the mean current at baseline conditions by more than three times the standard deviation of the baseline (3σ). For EC50 determination, current amplitudes at each concentration were normalised to the baseline current, and dose–response curves were fitted using the Hill equation.
# [1] = tested on: membrane potential of RBCs (Gárdos channel activity); experiment: Membrane potential measurement (MBE method), hyperpolarisation by Gárdos channel activity; type: cell-based, human; details: magnitude of membrane hyperpolarisation ΔVm, Hill fit
# Method: The membrane potential of RBCs was measured using a method originally described by Macey et al., subsequently refined by Poul Bennekou, e.g., [27], and later optimised by the group of Stéphane Egée, e.g., [28]. As such, the method is referred to as the MBE method after the three scientists who most contributed to it. For each experiment, a 2 mL microcentrifuge tube was prepared with 1 mL of Ringer solution containing (in mM) 153 NaCl, 2 KCl, and 4 CaCl2. All reagents were of analytical grade and dissolved in Milli-Q water. Protonophore carbonyl cyanide m-chlorophenyl hydrazone (CCCP) was added at a final concentration of 26 µM to increase the hydrogen permeability of membranes. The tube was placed in a 36 °C water bath, and a magnetic stir bar was added to ensure continuous mixing. A calibrated pH electrode (InLab Expert Pro pH electrode, Mettler-Toledo GmbH, Greifensee, Switzerland) was immersed in the solution to monitor pH changes in real time, with data acquisition and recording performed via software on a connected computer. […] The system was monitored for an additional 5 minutes to observe the effects of the compound on the RBCs. […]
# The membrane potential (Vm) was calculated from the recorded pH data using the following equation:Vm [mV] = −61.5 × (pHval − pHlys), where pHval is the pH value measured at a specific time point, and pHlys is the final pH value obtained after cell lysis.
# [2] = tested on: free Ca^2+ in healthy red blood cells (RBCs); experiment: Intracellular Ca2+ by Fluo-4 flow cytometry in RBCs; type: cell-based, human; details: for EC50: maximum average Fluo-4 intensity of all RBCs during recording, Hill fit, flow cytometry, read-out: EC50 (Ca^2+ Measurements)
# Method: Experiments for the intracellular Ca^2+ detection of RBCs were performed in Tyrode solution containing (in mM) 130 NaCl, 5 KCl, 5 glucose, 10 HEPES, 1 MgCl2, and 1.5 CaCl2. The pH was adjusted to 7.40 with NaOH. All salts were of analytical grade. The cells were loaded with Fluo-4 AM (Molecular Probes, Eugene, OR, USA) at a concentration of 5 μM for 1 hour at 37 °C. Then, the cells were washed three times with Tyrode solution.
# Flow cytometry measurements were performed on LSRFortessa (Becton Dickinson, Franklin Lakes, NJ, USA). Washed RBCs from 50 μL of blood were loaded with Fluo-4 as previously described and washed again. For flow cytometry analysis, 10 μL of cell suspension was added to 700 μL of designed buffer and transferred to 5 mL round-bottom polystyrene test tubes (Corning Inc., Corning, NY, USA). For each sample, data recording started 1 minute after the cells were in the designed buffer for 10 minutes. The results were assessed using FlowJo (Becton Dickinson, Franklin Lakes, NJ, USA).
# [3] = tested on: membrane potential of RBCs (Gárdos channel activity); set-up: method as in PMID 37492641; details: RBCs pretreated with the inhibitor; cited from earlier work
# [4] = tested on: free Ca^2+ in healthy red blood cells (RBCs); set-up: method as in PMID 29259557, PMID 33208899; details: cited from earlier work
Compound,"block of Piezo1 channel activity (Piezo1 channel; 30 μM, applied after cumulative Yoda1 or Yoda2)",responding cells out of total valid cells (Piezo1 channel; 41 nM),responding cells out of total valid cells (Piezo1 channel; 144 nM),responding cells out of total valid cells (Piezo1 channel; 442 nM),responding cells out of total valid cells (Piezo1 channel; 1330 nM),responding cells out of total valid cells (Piezo1 channel; 4000 nM),responding cells out of total valid cells (Piezo1 channel; 8000 nM),responding cells out of total valid cells (any concentration) (Piezo1 channel),EC50 (Piezo1 channel),concentration at which the response plateaus (Piezo1 channel),EC50 [1],Fluo-4 (Ca^2+) response of RBCs ([2]; 40 nM),EC50 [2],Fluo-4 (Ca^2+) response of RBCs ([2]; 80 nM),inhibition of hyperpolarisation [3],inhibition of increased Ca^2+ induced by Yoda1 or mechanical stress [4]
[Cl][Gd]([Cl])[Cl] [GdCl3],block Piezo1 channel activity completely,,,,,,,,,,,,,,,
Clc1cccc(Cl)c1CSc1nnc(-c2cnccn2)s1 [Yoda1],,2/172,9/172,16/172,26/172,30/172,35/172,35/172,1390 nM,did not plateau,305 nM,no obvious response,1180 nM,,,
O=C(O)c1ccc(-c2nnc(SCc3c(Cl)cccc3Cl)s2)cc1 [Yoda2],,3/171,12/171,24/171,30/171,30/171,31/171,35/171,305 nM,around 4 μM,465 nM,,986 nM,no obvious response,,
GsMTx4,,,,,,,,,,,,,,,largely inhibited,significantly inhibited
